The numbers were not newly measured in patent publication US20120043242A1, “Medicinal cannabis fatty foodstuff” (priority 2010, published 2012), which cites them from elsewhere.

The subject of data set [1] is people who use cannabis. The conditions noted are these: compared with the no cannabinoid and the TCH+CBD groups.
The subject of data set [2] is healthy individuals. As to conditions: healthy individuals / humans.

Where two headings read alike, the source gives them in different places.

Turning to `CCCCCc1cc2c(c(O)c1C(=O)O)[C@@H]1C=C(C)CC[C@H]1C(C)(C)O2` [THCA-A, tetrahydrocannabinol carboxylic acid], the “decarboxylation of concentrated THCA-A in solution into Δ^9-THC” value reads like this: (120 degrees C.) “Partial decarboxylation”; (140 degrees C.) “Significant decarboxylation”; (160 degrees C.) “Nearly complete decarboxylation”.

Regarding `CCCCCc1cc(O)c2c(c1)OC(C)(C)[C@@H]1CCC(C)=C[C@@H]21` [Δ^9-THC, Tetrahydrocannabinol], the “degradation of Δ^9-THC into cannabinol and dihydrocannabinol” value reads like this: (160 degrees C.) “some degradation”; (180 degrees C.) “A significant percentage”. Also, the positive schizophrenia-like symptoms result in data set [1] is reported as “higher levels”. The “anxiety and psychotic symptoms” value in data set [2] is “elevate levels of anxiety and psychotic symptoms”.

Consider `C=C(C)[C@@H]1CCC(C)=C[C@H]1c1c(O)cc(CCCCC)cc1O` [CBD, cannabidiol], for which, in data set [2], the “anxiety and psychotic symptoms” value was “anxiolytic and to have antipsychotic properties”.
